In US20220315578A1, “BRD9 BIFUNCTIONAL DEGRADERS AND THEIR METHODS OF USE” (NOVARTIS AG, priority 2019, published 2022):

Molecular target: T1, BRD9-GFP (Homo sapiens, UniProt Q9H8M2)
T1 construct: CHYSEL (2A cis-acting hydrolase element) remnant after GFP; mCherry is split off as a separate protein (C); expressed in transfected cells; host or cells: HEK293A cells (Invitrogen R70507), lentiviral transduction with pLenti6-BRD9-GFP-CHYSEL-mCherry, blasticidin selection
T1 sequence (Q9H8M2 1-597): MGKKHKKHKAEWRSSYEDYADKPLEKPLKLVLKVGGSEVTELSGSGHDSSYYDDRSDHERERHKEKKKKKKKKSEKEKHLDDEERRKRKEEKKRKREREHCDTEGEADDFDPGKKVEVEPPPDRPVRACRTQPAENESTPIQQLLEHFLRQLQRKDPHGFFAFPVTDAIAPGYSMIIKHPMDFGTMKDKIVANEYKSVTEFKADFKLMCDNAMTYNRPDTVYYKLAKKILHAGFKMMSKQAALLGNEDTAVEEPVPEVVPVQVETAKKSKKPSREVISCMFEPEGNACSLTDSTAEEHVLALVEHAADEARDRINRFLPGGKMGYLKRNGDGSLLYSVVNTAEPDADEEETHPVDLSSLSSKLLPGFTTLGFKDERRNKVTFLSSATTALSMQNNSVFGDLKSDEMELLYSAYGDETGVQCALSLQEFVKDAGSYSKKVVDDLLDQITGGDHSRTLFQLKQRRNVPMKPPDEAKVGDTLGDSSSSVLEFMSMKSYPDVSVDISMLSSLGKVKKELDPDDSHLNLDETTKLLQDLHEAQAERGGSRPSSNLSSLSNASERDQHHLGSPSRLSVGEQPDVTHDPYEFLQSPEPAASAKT
Assay: BRD9-GFP protein abundance flow cytometry assay in HEK293A cells
Format: cell-based
Settings: HEK293A-BRD9-GFP-CHYSEL-mCherry cells; for BRD9 Deg Amax %: 24 h, % protein remaining at the concentration at which maximum degradation is seen; for DC50: 24 h at 37° C., 10-point 1:3 dilution, concentration at which 50% maximal degradation was observed
Summary of the method: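 HEK293A cells stably express bicistronic BRD9-GFP-CHYSEL-mCherry and received 24 h treatment at 37° C with a 10-point, 3-fold dilution series from […], in 0.1% DMSO and duplicate. Median GFP/mCherry ratio of 5,000 single cells by flow cytometry, normalized to mCherry-only cells (0%) and DMSO (100%), gave DC50 and Amax (% protein remaining).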

Question: Which results are given for `CCCn1cc(-c2cc(F)c(CCN3CCC(OC4CCN(C(=O)c5ccc(Cl)c(N6CCC(=O)NC6=O)c5)CC4)CC3)c(OC)c2)c(C)c(C)c1=O` [Compound E52, 1-(2-Chloro-5-(4-((1-(4-(4,5-dimethyl-6-oxo-1-propyl-1,6-dihydropyridin-3-yl)-2-fluoro-6-methoxyphenethyl)piperidin-4-yl)oxy)piperidine-1-carbonyl)phenyl)dihydropyrimidine-2,4(1H,3H)-dione]?
Answer: BRD9 Deg Amax %: 14.99%; DC50: 4 nM

Question: With `CCCCn1cc(-c2cc(F)c(CCN3CCC(OC4CCN(C(=O)c5ccc(Cl)c(N6CCC(=O)NC6=O)c5)CC4)CC3)c(OC)c2)c2ccncc2c1=O` [Compound E53, 1-(5-(4-((1-(4-(2-butyl-1-oxo-1,2-dihydro-2,7-naphthyridin-4-yl)-2-fluoro-6-methoxyphenethyl)-piperidin-4-yl)oxy)piperidine-1-carbonyl)-2-chlorophenyl)dihydro-pyrimidine-2,4(1H,3H)-dione] as the compound, how does the “BRD9 Deg Amax %” value read?
Answer: 16.11%

Question: And the DC50?
Answer: 4 nM

Question: For `CCCCn1cc(-c2ccc(CN3CCC(OC4CCN(C(=O)c5ccc(OC)c(N6CCC(=O)NC6=O)c5)CC4)CC3)c(F)c2)c2ccncc2c1=O` [Compound E54, 1-(5-(4-((1-(4-(2-butyl-1-oxo-1,2-dihydro-2,7-naphthyridin-4-yl)-2-fluorobenzyl)piperidin-4-yl)oxy)piperidine-1-carbonyl)-2-methoxyphenyl)dihydropyrimidine-2,4(1H,3H)-dione], which “BRD9 Deg Amax %” value is on record?
Answer: 18.33%

Question: What about the DC50 of the same compound?
Answer: 4 nM

Question: What does the source list for `CCCn1cc(-c2cc(OC)c(CCN3CC[C@@H](OC4CCN(C(=O)c5ccc(Cl)c(N6CCC(=O)NC6=O)c5)CC4)[C@H](F)C3)c(OC)c2)c(C)c(C)c1=O` [Compound E55, 1-(2-chloro-5-(4-(((3R,4R)-1-(4-(4,5-dimethyl-6-oxo-1-propyl-1,6-dihydropyridin-3-yl)-2,6-dimethoxyphenethyl)-3-fluoropiperidin-4-yl)oxy)piperidine-1-carbonyl)phenyl)dihydropyrimidine-2,4(1H,3H)-dione]?
Answer: BRD9 Deg Amax %: 18.12%; DC50: 5 nM

Question: What does the source list for `CCCCn1cc(-c2cc(F)c(O[C@@H]3CCN(CC4CCN(C(=O)c5ccc(OC)c(N6CCC(=O)NC6=O)c5)CC4)C[C@H]3F)c(F)c2)c2ccncc2c1=O` [Compound E56, 1-(5-(4-(((3R,4R)-4-(4-(2-butyl-1-oxo-1,2-dihydro-2,7-naphthyridin-4-yl)-2,6-difluorophenoxy)-3-fluoropiperidin-1-yl)methyl)piperidine-1-carbonyl)-2-methoxyphenyl)dihydropyrimidine-2,4(1H,3H)-dione]?
Answer: BRD9 Deg Amax %: 19.65%; DC50: 1 nM
